Assay results from PMC10782225 (The FASEB Journal, 2023).

What was measured:
[1] = biological target: T1, human α7β2‐nAChR (Homo sapiens, UniProt P17787+P36544); assay: cell-based; settings: SEM
T1 construct: expressed in transfected cells; host or cells: Xenopus laevis oocytes, cRNA injection

[2] = biological target: T2, human α7‐only‐nAChR (Homo sapiens, UniProt P36544); assay: cell-based; settings: SEM
T2 construct: expressed in transfected cells; host or cells: Xenopus laevis oocytes, cRNA injection
T2 sequence (P36544 23-502 limits assumed): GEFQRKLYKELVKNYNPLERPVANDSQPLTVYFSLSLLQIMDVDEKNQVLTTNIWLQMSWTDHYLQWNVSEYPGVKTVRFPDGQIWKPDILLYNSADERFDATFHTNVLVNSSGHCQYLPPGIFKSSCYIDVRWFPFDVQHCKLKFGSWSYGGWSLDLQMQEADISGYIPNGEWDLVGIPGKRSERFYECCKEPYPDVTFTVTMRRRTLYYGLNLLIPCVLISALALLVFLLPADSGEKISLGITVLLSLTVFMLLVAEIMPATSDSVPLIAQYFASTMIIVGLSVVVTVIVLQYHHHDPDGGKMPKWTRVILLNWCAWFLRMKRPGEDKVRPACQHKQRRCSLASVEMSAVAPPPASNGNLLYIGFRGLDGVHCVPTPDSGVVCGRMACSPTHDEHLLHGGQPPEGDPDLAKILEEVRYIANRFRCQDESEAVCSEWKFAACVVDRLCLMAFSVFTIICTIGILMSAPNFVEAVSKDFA

T1 sequence (P36544 23-502 limits assumed): as above
T1 sequence (P17787 26-502 limits assumed): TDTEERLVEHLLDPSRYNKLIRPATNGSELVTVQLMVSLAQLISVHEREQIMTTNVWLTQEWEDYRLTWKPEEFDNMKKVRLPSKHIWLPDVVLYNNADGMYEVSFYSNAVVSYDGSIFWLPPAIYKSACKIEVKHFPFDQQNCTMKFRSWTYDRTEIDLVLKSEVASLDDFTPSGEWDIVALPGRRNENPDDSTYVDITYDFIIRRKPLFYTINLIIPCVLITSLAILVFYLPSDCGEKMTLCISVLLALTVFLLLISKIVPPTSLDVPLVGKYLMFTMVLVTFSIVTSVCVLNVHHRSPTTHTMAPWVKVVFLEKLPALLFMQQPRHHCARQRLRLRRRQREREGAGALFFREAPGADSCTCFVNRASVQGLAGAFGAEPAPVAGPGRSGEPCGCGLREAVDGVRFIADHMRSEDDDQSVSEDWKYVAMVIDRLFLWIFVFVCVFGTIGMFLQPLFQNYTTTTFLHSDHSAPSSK

Which results are given for `CC(C)C[C@@H]1NC(=O)[C@H](Cc2ccccc2)NC(=O)[C@@H]2CSSC[C@H](NC(=O)CN)C(=O)N[C@@H](CSSC[C@@H](C(N)=O)NC(=O)[C@H](Cc3ccc(O)cc3)NC(=O)[C@H](CC(=O)O)NC(=O)[C@@H]3CCCN3C(=O)[C@H](CC(N)=O)NC(=O)[C@H](CC(N)=O)NC1=O)C(=O)N[C@@H](CO)C(=O)N[C@@H](Cc1c[nH]cn1)C(=O)N1CCC[C@H]1C(=O)N1CCC[C@H]1C(=O)N2` [α‐CtxPnIC, α‐conotoxin PnIC]?
Kd ([1]; K d α7β2): 3.3 ± 0.6 nM; koff ([1]; read-out: k off α7β2): 0.000119 s⁻¹; kon ([1]; read-out: k on α7β2): 37200 M⁻¹ s⁻¹; Kd [2]: 1.9 ± 0.4 nM; koff ([2]; read-out: k off α7‐only): 0.000122 s⁻¹; kon ([2]; read-out: k on α7‐only): 68700 M⁻¹ s⁻¹
